Test results as given in PubChem BioAssay (NCI).
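Each compound was tested at five concentrations against cells in 96-well plates for 48 hours. GI50 = concentration required for 50% inhibition of growth. TGI is the concentration that stops growth completely.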

Columns and labels:
Experiment in all cases: inhibition of tumour cell growth, NCI panel, 48 h
[1] = test system: BT-549 breast
[2] = test system: OVCAR-3 ovarian
[3] = test system: MCF7 breast
[4] = test system: NCI-H522 lung
[5] = test system: HCT-15 colon
[6] = test system: CCRF-CEM leukemia
[7] = test system: U251 CNS
[8] = test system: HOP-92 NSCLC
[9] = test system: NCI/ADR-RES ovarian
[10] = test system: SK-MEL-2 melanoma

| SMILES | GI50 [1] | TGI [1] | GI50 [2] | TGI [2] | GI50 [3] | TGI [3] | GI50 [4] | TGI [4] | GI50 [5] | TGI [5] | GI50 [6] | TGI [6] | GI50 [7] | TGI [7] | GI50 [8] | TGI [8] | GI50 [9] | TGI [9] | GI50 [10] | TGI [10] |
| --- | --- | --- | --- | --- | --- | --- | --- | --- | --- | --- | --- | --- | --- | --- | --- | --- | --- | --- | --- | --- |
| CNC(=O)c1cc2c(Oc3ccc(NC(=S)NC(=O)Cc4ccccc4)cc3F)ccnc2cc1OC | 2.91 µM | > 28.7 µM | > 28.6 µM | > 100 µM | > 100 µM | > 100 µM | 10 µM | > 100 µM | 4.7 µM | > 100 µM | > 29.9 µM | > 100 µM | > 100 µM | > 100 µM | 1.67 µM | > 100 µM | 7.01 µM | > 100 µM | > 29.9 µM | > 100 µM |
| CC(C)(C)OC(=O)NCCCCCCCCCCn1c2c(c3ccccc3c1=O)C(=O)c1ccccc1-2 | 57.5 µM | > 100 µM | > 100 µM | > 100 µM | > 100 µM | > 100 µM | 86.1 µM | > 100 µM | > 100 µM | > 100 µM | 20 µM | > 100 µM | 29 µM | > 100 µM | 9.92 µM | 35.2 µM | > 100 µM | > 100 µM | 21.1 µM | 49.7 µM |
| Nc1cc2nc3ccccc3oc-2cc1=O | 1.54 µM | 3.53 µM | 3.54 µM | 29.3 µM | 1.35 µM | 3.33 µM | 3.45 µM | 10.1 µM | 0.641 µM |  | 13.4 µM | > 64.9 µM | 1.73 µM | 12.3 µM | > 45 µM | > 100 µM | 9.16 µM | > 88.9 µM | 6.62 µM | 25.7 µM |
| CCN1C(=O)N(CC)C2C1NN=c1s/c(=C\c3cccc([N+](=O)[O-])c3)c(=O)n12 (centres undefined) | 0.291 µM | 33.5 µM | 0.0575 µM | 0.399 µM | 0.0366 µM | > 100 µM | 0.0427 µM | 3.4 µM | 0.0486 µM | > 100 µM | 0.116 µM | > 100 µM | 0.0542 µM | > 100 µM | 4.05 µM | > 100 µM | 0.0443 µM | 0.703 µM | 0.453 µM | > 100 µM |
| CCN(CC)c1ccc(/C=C/C=C(/C#N)C(N)=S)cc1 | 2.73 µM | 16 µM | 10.9 µM | > 100 µM | 14.5 µM | > 100 µM | 8.54 µM | 47.8 µM | 2.59 µM | > 100 µM | 3.16 µM | 71.8 µM | 7.36 µM | > 100 µM | 10.8 µM | 71.3 µM | 3.85 µM | > 100 µM | 20.9 µM | > 100 µM |
| C#C/C=C/CC1OC(C(Br)CC)CC(Br)C2CC1O2 (centres undefined) |  | > 100 µM |  | > 100 µM |  | > 100 µM |  | 21.1 µM |  | > 100 µM |  | > 100 µM |  | > 100 µM |  | 58.6 µM |  | > 100 µM |  | > 100 µM |
| CCCC#CCOC(=O)c1cc([N+](=O)[O-])cc([N+](=O)[O-])c1 |  | > 100 µM |  | > 100 µM |  | > 100 µM |  | > 100 µM |  | > 100 µM |  | > 100 µM |  | > 100 µM |  | > 100 µM |  | > 100 µM |  | > 100 µM |
| CC1(C)CC(=O)c2c(ccc(C(=O)C[C@@H](N)CO)c2N)O1 | 1.12 µM | 11.9 µM | 0.431 µM | > 38.2 µM | 0.399 µM | > 52.5 µM | 0.919 µM | 15.3 µM | 0.177 µM | 12.2 µM | 0.556 µM | > 60.2 µM | 0.328 µM | > 100 µM | 6.28 µM | > 69.3 µM | 2.55 µM | > 100 µM | 1.04 µM | 9.33 µM |
| COc1cc(C2C3=C(COC3=O)Nc3cc4c(cc32)OCO4)cc2c1OCO2 (centres undefined) | 1.66 µM | > 100 µM | 0.0267 µM | 0.0695 µM | 0.0393 µM | > 100 µM | 0.0219 µM | 0.0665 µM | 0.109 µM | > 100 µM | 0.0698 µM | > 100 µM | 0.111 µM | > 100 µM | 3.24 µM | > 93.3 µM | 0.0785 µM | 0.606 µM | 0.113 µM | > 26 µM |
| CN(C)c1ccc(/C=N/NC(=O)c2cccc3ccccc23)c(Cl)c1 | 0.733 µM | > 100 µM | 0.865 µM | 13.5 µM | 0.348 µM | > 100 µM | 1.12 µM | 39.4 µM | 0.727 µM | > 100 µM | 0.581 µM | > 100 µM | 1.1 µM | 26.2 µM | 0.372 µM | 19.6 µM | 1.02 µM | > 100 µM | 0.815 µM | 16.5 µM |
